Measurements published in patent US20250197864A1, “LNCRNA TRANSCRIPTS IN MELANOMAGENESIS” (The Regents of the University of California, priority 2021, published 2025).

Test system: gene expression in D04 melanoma cells
Assay: RNA-Seq differential expression analysis (DESeq2)
Assay type: cell-based, human
Conditions: up-regulated list
Procedure: Total RNA was isolated using the RNeasy mini Kit (QIAGEN) following the manufacturer's protocol. Quality check for extracted RNA was done using 2100 Bioanalyzer (Agilent Technologies, USA) or Tapestation System (Agilent Technologies, USA). […] For samples used for identification of MAPK-responsive lncRNAs, paired-end, 101-bp sequencing was performed by Centrillion Genomic Services (Centrillion Biosciences, USA) on an Illumina HiSeq 2000. For DE gene analysis of ASO-transfected D04 samples, paired-end, 2×150-bp sequencing was performed by Genewiz (USA) on a Illumina HiSeq.
Sequence reads were aligned to the human genome (hg19) using TopHat (Version 2.0.11).
Differential expression (DE) analysis was done using DESeq2. Differentially expressed genes were defined by more than 1.5-fold changes (log 2 >0.58 or <−0.58) in expression with FDR<0.05. GO term analysis was done using DAVID Functional Annotation Clustering analysis.
To examine the biomolecular changes upon TRASH-inhibition in melanoma, D04 cells were treated with TRASH-ASOs (SEQ ID NO:15) and Control-ASOs and RNA was extracted and used for RNA-Seq. […] These GO terms consisted of genes encoding growth factors, tyrosine kinases, G protein coupled receptor subunits, and collagen subunits. Scatter plot diagram showing differential gene expression after TRASH-ASO treatment compared to Control-ASO treatment. (cut-off for significance was adjusted p-value <0.05). Data was obtained from RNA-Seq of D04 melanoma cells, treatment period was three days. (FIG. 5c)

Q: For “GACTGGAGATAATTAA (gapmer, pattern not given here) [SEQ ID NO: 15, GapmeR ASO targeting AC004540.4 (TRASH), exon region of both isoforms; used for in vitro experiments]”, which “log2FoldChange HIST3H2A” value (ENSG00000181218) is on record?
A: 0.6762

Q: And the “log2FoldChange GPR3” value (ENSG00000181773)?
A: 0.5989

Q: What about the “log2FoldChange IBA57” value (ENSG00000181873) of the same sequence?
A: 0.6496

Q: What about the “log2FoldChange KCNJ14” value (ENSG00000182324) of the same sequence?
A: 0.8416

Q: What about the “log2FoldChange MEX3B” value (ENSG00000183496) of the same sequence?
A: 0.7229

Q: What about the “log2FoldChange SLC35F3” value (ENSG00000183780) of the same sequence?
A: 0.8791

Q: And the “log2FoldChange TXNRD2” value (ENSG00000184470)?
A: 0.5869

Q: What about the “log2FoldChange OSBP2” value (ENSG00000184792) of the same sequence?
A: 1.106

Q: What about the “log2FoldChange SDR42E1” value (ENSG00000184860) of the same sequence?
A: 0.9762

Q: What about the “log2FoldChange MAFF” value (ENSG00000185022) of the same sequence?
A: 0.6847

Q: And the “log2FoldChange SOCS1” value (ENSG00000185338)?
A: 0.6402

Q: And the “log2FoldChange PMEL” value (ENSG00000185664)?
A: 0.9831

Q: What about the “log2FoldChange MYBL1” value (ENSG00000185697) of the same sequence?
A: 0.6266

Q: What about the “log2FoldChange PCLO” value (ENSG00000186472) of the same sequence?
A: 0.6974

Q: What about the “log2FoldChange MT1X” value (ENSG00000187193) of the same sequence?
A: 0.7581

Q: And the “log2FoldChange MAGEH1” value (ENSG00000187601)?
A: 0.7858

Q: And the “log2FoldChange ZFP69B” value (ENSG00000187801)?
A: 0.7093

Q: And the “log2FoldChange ZP3” value (ENSG00000188372)?
A: 0.8099

Q: What about the “log2FoldChange C22orf34” value (ENSG00000188511) of the same sequence?
A: 0.661

Q: And the “log2FoldChange GJB3” value (ENSG00000188910)?
A: 1.136

Q: And the “log2FoldChange GJB5” value (ENSG00000189280)?
A: 1.088

Q: What about the “log2FoldChange SH2D5” value (ENSG00000189410) of the same sequence?
A: 1.08

Q: And the “log2FoldChange PLEKHG4” value (ENSG00000196155)?
A: 0.6321

Q: What about the “log2FoldChange CD55” value (ENSG00000196352) of the same sequence?
A: 0.645

Q: And the “log2FoldChange NUDT11” value (ENSG00000196368)?
A: 0.6654

Q: And the “log2FoldChange AC009022.1” value (ENSG00000196696)?
A: 0.6881

Q: And the “log2FoldChange S100A2” value (ENSG00000196754)?
A: 0.5809

Q: And the “log2FoldChange SLC6A17” value (ENSG00000197106)?
A: 1.129

Q: What about the “log2FoldChange ZNF860” value (ENSG00000197385) of the same sequence?
A: 0.5877

Q: What about the “log2FoldChange VEPH1” value (ENSG00000197415) of the same sequence?
A: 0.5803

Q: And the “log2FoldChange ZNF841” value (ENSG00000197608)?
A: 0.6523

Q: What about the “log2FoldChange SERPINB2” value (ENSG00000197632) of the same sequence?
A: 0.8127

Q: And the “log2FoldChange PDCD1LG2” value (ENSG00000197646)?
A: 1.192

Q: And the “log2FoldChange FAM49A” value (ENSG00000197872)?
A: 0.7378

Q: What about the “log2FoldChange HRNR” value (ENSG00000197915) of the same sequence?
A: 0.6084

Q: And the “log2FoldChange CSF2RA” value (ENSG00000198223)?
A: 1.103

Q: And the “log2FoldChange CD247” value (ENSG00000198821)?
A: 1.07

Q: What about the “log2FoldChange HSD3BP5” value (ENSG00000198857) of the same sequence?
A: 0.8606

Q: And the “log2FoldChange LINC01291” value (ENSG00000204792)?
A: 0.9824

Q: What about the “log2FoldChange KRT81” value (ENSG00000205426) of the same sequence?
A: 0.8139

Q: And the “log2FoldChange TRBC2” value (ENSG00000211772)?
A: 0.6815

Q: What about the “log2FoldChange ANG” value (ENSG00000214274) of the same sequence?
A: 1.047

Q: What about the “log2FoldChange FER1L6” value (ENSG00000214814) of the same sequence?
A: 0.6181

Q: And the “log2FoldChange UBE2QL1” value (ENSG00000215218)?
A: 0.6007

Q: And the “log2FoldChange PLXNA4” value (ENSG00000221866)?
A: 1.101

Q: What about the “log2FoldChange RNU2-63P” value (ENSG00000222724) of the same sequence?
A: 0.6055

Q: And the “log2FoldChange ROR1-AS1” value (ENSG00000223949)?
A: 0.9732

Q: What about the “log2FoldChange ZMIZ1-AS1” value (ENSG00000224596) of the same sequence?
A: 0.9113

Q: What about the “log2FoldChange AC017002.1” value (ENSG00000224959) of the same sequence?
A: 0.6679

Q: What about the “log2FoldChange AL354740.1” value (ENSG00000225339) of the same sequence?
A: 0.7567

Q: And the “log2FoldChange CFLAR-AS1” value (ENSG00000226312)?
A: 0.8124

Q: What about the “log2FoldChange AC016831.1” value (ENSG00000226380) of the same sequence?
A: 0.8375

Q: What about the “log2FoldChange ERVMER34-1” value (ENSG00000226887) of the same sequence?
A: 0.9222

Q: And the “log2FoldChange AC020571.1” value (ENSG00000229056)?
A: 0.6243

Q: What about the “log2FoldChange AL589880.1” value (ENSG00000229939) of the same sequence?
A: 0.6572

Q: What about the “log2FoldChange AL590666.2” value (ENSG00000229953) of the same sequence?
A: 0.9636

Q: And the “log2FoldChange LINC01293” value (ENSG00000230836)?
A: 1.066

Q: And the “log2FoldChange LINC00704” value (ENSG00000231298)?
A: 0.7366

Q: What about the “log2FoldChange AL603650.1” value (ENSG00000232355) of the same sequence?
A: 1.015

Q: And the “log2FoldChange LINC02535” value (ENSG00000234155)?
A: 1.054

Q: And the “log2FoldChange PINLYP” value (ENSG00000234465)?
A: 0.7137

Q: What about the “log2FoldChange RPL13AP20” value (ENSG00000234498) of the same sequence?
A: 1.162

Q: And the “log2FoldChange C19orf81” value (ENSG00000235034)?
A: 0.9948

Q: What about the “log2FoldChange LINC00941” value (ENSG00000235884) of the same sequence?
A: 0.9292

Q: What about the “log2FoldChange PNMA6A” value (ENSG00000235961) of the same sequence?
A: 0.8869

Q: What about the “log2FoldChange AL354719.2” value (ENSG00000236345) of the same sequence?
A: 1.16

Q: And the “log2FoldChange GGT8P” value (ENSG00000236969)?
A: 1.181

Q: What about the “log2FoldChange AL138828.1” value (ENSG00000237596) of the same sequence?
A: 1.06

Q: And the “log2FoldChange OXCT2P1” value (ENSG00000237624)?
A: 1.01

Q: And the “log2FoldChange SPATA3-AS1” value (ENSG00000238062)?
A: 1.082

Q: What about the “log2FoldChange AC026250.1” value (ENSG00000245522) of the same sequence?
A: 0.9507

Q: What about the “log2FoldChange SBF2-AS1” value (ENSG00000246273) of the same sequence?
A: 0.9574

Q: What about the “log2FoldChange AC104066.1” value (ENSG00000248375) of the same sequence?
A: 0.8941

Q: What about the “log2FoldChange LINC02021” value (ENSG00000249846) of the same sequence?
A: 1.04

Q: What about the “log2FoldChange AC091173.1” value (ENSG00000251127) of the same sequence?
A: 1.149

Q: What about the “log2FoldChange SMG1P6” value (ENSG00000254634) of the same sequence?
A: 1.045

Q: What about the “log2FoldChange ZNF10” value (ENSG00000256223) of the same sequence?
A: 0.6255

Q: And the “log2FoldChange C17orf100” value (ENSG00000256806)?
A: 0.644

Q: What about the “log2FoldChange AC073611.1” value (ENSG00000257605) of the same sequence?
A: 0.6207

Q: What about the “log2FoldChange LINC01579” value (ENSG00000258754) of the same sequence?
A: 0.7555

Q: What about the “log2FoldChange AC013652.1” value (ENSG00000259345) of the same sequence?
A: 0.6859

Q: What about the “log2FoldChange AC011468.1” value (ENSG00000260160) of the same sequence?
A: 0.8721

Q: And the “log2FoldChange LINC02170” value (ENSG00000260896)?
A: 0.7455

Q: And the “log2FoldChange LINC00622” value (ENSG00000260941)?
A: 0.6079

Q: What about the “log2FoldChange EPPK1” value (ENSG00000261150) of the same sequence?
A: 0.7148

Q: What about the “log2FoldChange LINC01029” value (ENSG00000265843) of the same sequence?
A: 0.6081

Q: And the “log2FoldChange PCAT19” value (ENSG00000267107)?
A: 1.193
